Consider three substances from patent US6458764B1, “GRF analogs with increased biological potency” (Theratechnologies Inc., priority 1995, dated 2002).

Where no end group is shown, it is not given here. The star is where a group is joined. Hexenoyl(3E) = CC/C=C/CC(=O)*

For one data set, the system named is IGF-1 levels in pig sera. The experiment in a line: Effect of hGRF(1-44)NH2 analogs on IGF-1 levels following S.C. chronic administration in growing male pigs (Example XI, IRMA). The class given is in vivo. The method, then:
The objective of this experiment was to compare the effects of 8 different hGRF(1-44)NH2 analogues including TH 9507 on IGF-1 levels following S.C. chronic administration in growing male pigs.
Animal procedures were conducted as described in the protocol GRF-30 submitted Apr. 30, 1999, with the following modification: only 8 GRF analogues, including TH 9507, were provided by the sponsor. Accordingly, the study was performed on 30 pigs.
Laboratory procedures were conducted as follow: IGF-l levels were measured in pig sera using a commercial kit (DSL-5600) purchased from Diagnostic Systems Laboratories Inc., Tex., USA. Briefly, IGF-1 levels are quantified using a two-site immunoradiometric assay (IRMA) following acid-ethanol extraction.
Statistical analysis: IGF-1 data were subjected to a two-way repeated measures analysis of variance, with time (day 1, 3 or 6) and treatments (A to J) as variation factors pairwise multiple comparison procedures were then run by the Student-Newman-Keuls method. All statistical procedures were performed using the computerized SigmaStat software (Jandel Scientific). A P<0.05 was considered statistically significant.

The conditions of data set [1]: metabolites have no residual biological activity; cited from earlier work.
Data set [2] relates to pig serum GH. Put plainly: Intravenous GH-releasing potency in pigs (Example III). The class given is in vivo, pigs (Landrace x Yorkshire). The note with it: 4 μg/kg. The method, then: This experiment was conducted to test the I.V. acute GH-releasing potency of (Hexenoyl trans-3)0 hGRF (1-29) NH2, a GRF analog, in a model physiologically close to human and to compare it to that of hGRF(1-29)NH2.
(Hexenoyl trans-3)0 hGRF (1-29) NH2 is a combination of the natural hGRF(1-29)NH2 and natural fatty acids. This study was a multidose, single I.V. injection study.
ADMINISTRATION: intravenous acute injection.
(§1) TEST SYSTEM: Landrace x Yorkshire pigs.
DESIGN: […] pigs (4 spare animals) were cannulated (a catheter surgically implanted in one jugular vein) within on week, before the study. On days 1 and 7, cannulated animals were randomly distributed into 7 groups (n=4 pigs per group).
Blood samples for pGH assay were collected every 20 min from 1 hour before to 5 hours after GRF injections, with additional samplings 10 and 30 min after injection (n=21 samples). Blood samples are allowed to clot at +4° C. Serum will be harvested by centrifugation, stored at −20° C. and submitted to pGH assays.

Data set [3] deals with pig serum GH. The experiment in a line: Subcutaneous GH-releasing potency in pigs (Example IV). The class given is in vivo, pigs (Landrace x Yorkshire). The settings on record: for effect on GH area under the curve, 0 to 420 minutes following injection: S.C., FIG. 5. The method, then: This experiment was conducted to test the S.C. acute GH-releasing potency of (Hexenoyl trans-3)0 hGRF (1-29) NH2, a GRF analog, in a model physiologically close to human and to compare it to that of hGRF(1-29)NH2.
ADMINISTRATION: Subcutaneous acute injection.
as §1
DESIGN: Thirty six (36) pigs (4 spare animals) were cannulated (a catheter surgically implanted in one jugular vein) within one week, before the study. On days 1 and 7, cannulated animals were randomly distributed into 8 groups (n=4 pigs per group).
Blood samples for pGH assay were collected every 20 min from 1 hour before to 7 hours after GRF injections, (n=25 samples). Blood samples were allowed to clot at +4CC. Serum is harvested by centrifugation, stored at −20° C. and submitted to pGH assays.

The test system of a further data set is serum IGF-I. Put plainly: Repeated S.C. administrations of GRF analogs, serum IGF-I levels in pigs (Example I, Experiments 1-3; radioimmunoassay). The class given is in vivo, pigs (Landrace x Yorkshire). The settings on record: for serum IGF-I, Day 1 (pretreatment): pretreatment baseline. The method, then: The objective of these experiments was to assess the potential of the GRF analogs as anabolic agents.
Therefore, in order to investigate the anabolic potency of the fatty acid-GRF analogs, their ability to increase IGF-I levels following repeated S.C. administrations in pig was evaluated.
26 Landrace x Yorkshire castrated male pigs (40-45 kg BW) were randomly distributed into 4 experimental groups:
Each animal was injected BID (twice a day) subcutaneously for 4 consecutive days. One blood sample was collected each morning prior to the first injection of the day, and the day after the last injection, for IGF-I measurement.
40 Landrace x Yorkshire castrated male pigs (40-45 kg BW) were randomly distributed into 5 experimental groups:
Each animal was injected BID (twice a day) subcutaneously for 5 consecutive days. One blood sample was collected each morning prior to the first injection of the day, and the day after the last injection, for IGF-I measurement.
48 Landrace x Yorkshire castrated male pigs (40-45 kg BW) were randomly distributed into 6 experimental groups:
The selected doses were 30 μg/kg for hGRF(1-44)NH2 analogs and 20 μg/kg for hGRF(1-29)NH2 analogs, which give identical doses on a molar basis. Each animal was injected BID (twice a day) subcutaneously for 5 consecutive days. One blood sample was collected each morning prior to the first injection of the day, and the day after the last injection, for IGF-I measurements.
IGF-I levels were measured in pig serum by double antibody radioimmunoassay after formic acid-acetone extraction, as previously described (Abribat T. et al., 1993, J. Endocrinol., 39:583-589). The extraction prior to radioimmunoassay is a necessary step to remove endogenous IGF-binding proteins.
In both experiments, the IGF-I data were analyzed by a two way repeated measure analysis of variance, with day and treatment (GRF analog) as sources of variation. Multiple comparison procedures were there run (Student-Newman Keuls method). A P<0.05 was considered as statistically significant.

Setting [4] is: Experiment 1, 20 μg/kg BID SC × 4 days, mean of 6 to 7.
The mark [5] stands for this setting: Experiment 2, 40 μg/kg BID SC × 5 days, mean of 8.
The mark [6] stands for this setting: Experiment 3, 30 μg/kg BID SC × 5 days, mean of 8.

Regarding “TH 9507: one of 8 different hGRF(1-44)NH2 analogues provided by the sponsor; structure not stated ({Hexenoyl(3E)}-YADAIFTNSYRKVLGQLSARKLLQDIMSRQQGESNQERGARARL-NH2)”, the “IGF-1 levels on day 6 compared to basal levels on day 1” value with IGF-1 levels in pig sera (S.C. chronic administration in growing male pigs, FIG. 7) is listed as “significantly increased IGF-1 levels”. Also, in the data set with IGF-1 levels in pig sera (S.C. chronic administration in growing male pigs, saline group 190.1±21.0 ng/ml), the “IGF-1 levels following 5 days of injection” value was determined as 279.1 ± 28.4 ng/mL.
Take “hGRF (1-29)NH2 [hGRF(1-29)NH2, reference compound]”: the “degradation in a serum medium” value in data set [1] is given as “rapidly degraded”. The “effect on GH area under the curve (0 to 300 minutes following injection)” value in the data set on pig serum GH [2] (I.V., FIG. 3) was “significant effect on GH secretion”. Also, the “duration of GH release following injection” value in the data set with pig serum GH [2] (one intravenous injection, FIG. 2) is recorded as “approximately 60 minutes”. The “effect on GH area under the curve, 0 to 420 minutes following injection” value (“effect … to 420 minutes following injection” below) in the data set on pig serum GH [3] (1.25 μg/kg) is “did not induce any significant GH response”. The “effect … to 420 minutes following injection” value with pig serum GH [3] (5 μg/kg) is recorded as “did not induce any significant GH response”. Moreover, in the data set with pig serum GH [3] (20 μg/kg), the “effect … to 420 minutes following injection” value is “did not induce any significant GH response”. Besides, in the data set on pig serum GH [3] (one subcutaneous injection, 5 μg/kg, FIG. 4), the “duration of GH response following administration” value was no more than 60 min. Moreover, in the data set with serum IGF-I (Experiment 1, 20 μg/kg BID SC × 4 days), the “effect on IGF-I levels” value is on record as “ineffective”. Also, the “effect on IGF-I levels” value with serum IGF-I (Experiment 1, 20 μg/kg BID SC × 4 days, listed as Human GRF(1-29)NH2) is given as “no effect on IGF-I levels”. In addition, in the data set with serum IGF-I (setting [4]), the “serum IGF-I, Day 2” value was 235 ng/mL; the “serum IGF-I, Day 3” value turned out to be 263 ng/mL; the “serum IGF-I, Day 4” value stood at 258 ng/mL; the “serum IGF-I, Day 5” value turned out to be 262 ng/mL. For the same substance, the “serum IGF-I, Day 1 (pretreatment)” value in the data set with serum IGF-I (setting [4]) came out at 252 ng/mL. Besides, the “serum IGF-I levels” value with serum IGF-I (Experiment 2, 40 μg/kg BID SC × 5 days) is given as “remained stable”. For the same substance, in the data set with serum IGF-I (setting [5]), the “serum IGF-I, Day 2” value was 243 ng/mL; the “serum IGF-I, Day 3” value came to 267 ng/mL; the “serum IGF-I, Day 4” value came out at 275 ng/mL; the “serum IGF-I, Day 5” value came to 267 ng/mL. For the same substance, in the data set on serum IGF-I (setting [5]), the “serum IGF-I, Day 6” value is 256 ng/mL and the “serum IGF-I, Day 1 (pretreatment)” value was 244 ng/mL.
For the substance “hGRF(1-44)NH2 (YADAIFTNSYRKVLGQLSARKLLQDIMSRQQGESNQERGARARL-NH2) [reference compound]”, in the data set with IGF-1 levels in pig sera (injected subcutaneously in pigs twice a day at 10 ug/kg, FIG. 7), the “variations of IGF-1 concentrations in the study period” value was “not able to induce any significant increase in IGF-1 levels”. Further, the “effect on IGF-I levels” value in the data set on serum IGF-I (Experiment 3, 30 μg/kg BID SC × 5 days, except a significant effect on day 5, not sustained on day 6) is “little or no effect on IGF-I levels”. In addition, in the data set with serum IGF-I (setting [6]), the “serum IGF-I, Day 2” value came out at 254 ng/mL; the “serum IGF-I, Day 3” value is 285 ng/mL; the “serum IGF-I, Day 4” value was determined as 297 ng/mL; the “serum IGF-I, Day 5” value came to 303 ng/mL. Moreover, in the data set on serum IGF-I (setting [6]), the “serum IGF-I, Day 6” value turned out to be 296 ng/mL and the “serum IGF-I, Day 1 (pretreatment)” value came to 245 ng/mL.
